Experimental data from US20100105727A1, “NOVEL BENZAMIDE DERIVATIVES AND PROCESS FOR THE PREPARTION THEREOF” (DONG-A-PHARM. CO., LTD., priority 2007, published 2010).
pIC50: −log10 of the molar value. Read-outs that look alike come from different tables or passages of the source.

Tests used:
human 5-HT4 receptor = target: T1, human 5-HT4 receptor (Homo sapiens, UniProt Q13639); experiment: Binding affinity of compounds for 5-HT4 receptor (radioligand displacement, membrane lysates of COS-7 cells); conditions: inhibition of specific binding of 0.595 nM [H3]-AGR113808; COS-7 cell membrane lysates expressing human 5-HT4 receptor
T1 construct: expressed in transfected cells; host or cells: COS-7
T1 sequence (Q13639 whole entry): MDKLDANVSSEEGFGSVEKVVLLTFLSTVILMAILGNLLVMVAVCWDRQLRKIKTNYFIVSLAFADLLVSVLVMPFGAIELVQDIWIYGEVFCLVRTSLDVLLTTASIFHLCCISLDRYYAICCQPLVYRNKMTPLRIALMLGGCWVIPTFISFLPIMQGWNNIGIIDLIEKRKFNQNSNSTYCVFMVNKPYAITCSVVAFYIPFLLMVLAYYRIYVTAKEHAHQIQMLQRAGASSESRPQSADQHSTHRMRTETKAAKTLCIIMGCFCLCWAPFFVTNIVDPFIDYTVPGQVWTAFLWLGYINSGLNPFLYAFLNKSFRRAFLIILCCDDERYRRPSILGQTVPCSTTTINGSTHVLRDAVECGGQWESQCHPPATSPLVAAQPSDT
Method: For this purpose, COS-7 cells expressing the human 5-HT4 receptor were constructed and lysed to obtain cell membrane lysates which were then used in binding assay experiments. For binding assay, the membrane lysates were mixed and incubated with different concentrations of test materials and [H3]-AGR113808. […] After incubation was completed, the reaction products were collected in a GF/B glass fiber filter using a Packard cell harvester, and the bound radioactivity was then determined using a liquid cell scintillation counter (Packard TopCount NXT™, Perkin Elmer). Specific binding of the radioligand to the 5-HT4 receptor was calculated by subtracting the non-specific binding of the radioligand from the total radioligand binding. IC50 was calculated from % inhibition of specific binding of the radioligand to the 5-HT4 receptor, with respect to varying concentrations of the test materials.

male ICR mice = tested on: male ICR mice
Method: In order to examine acute toxicity of compounds according to the present invention, the following experiment was carried out.
Over the entire experimental period of 2 weeks, the minimum lethal dose (MLD, mg/kg) of the compound was investigated by the observation of the mortality, body weight and clinical symptoms of animals.

hERG potassium channel = target: T2, hERG potassium channel (Homo sapiens, UniProt Q12809); experiment: Binding affinity of compounds for hERG receptor ([H3]-Astemizole displacement, HEK-293 membrane lysates); conditions: % inhibition of specific binding of 1.5 nM [H3]-Astemizole at 10 μM test material
T2 construct: host or cells: HEK-293
T2 sequence (Q12809 whole entry): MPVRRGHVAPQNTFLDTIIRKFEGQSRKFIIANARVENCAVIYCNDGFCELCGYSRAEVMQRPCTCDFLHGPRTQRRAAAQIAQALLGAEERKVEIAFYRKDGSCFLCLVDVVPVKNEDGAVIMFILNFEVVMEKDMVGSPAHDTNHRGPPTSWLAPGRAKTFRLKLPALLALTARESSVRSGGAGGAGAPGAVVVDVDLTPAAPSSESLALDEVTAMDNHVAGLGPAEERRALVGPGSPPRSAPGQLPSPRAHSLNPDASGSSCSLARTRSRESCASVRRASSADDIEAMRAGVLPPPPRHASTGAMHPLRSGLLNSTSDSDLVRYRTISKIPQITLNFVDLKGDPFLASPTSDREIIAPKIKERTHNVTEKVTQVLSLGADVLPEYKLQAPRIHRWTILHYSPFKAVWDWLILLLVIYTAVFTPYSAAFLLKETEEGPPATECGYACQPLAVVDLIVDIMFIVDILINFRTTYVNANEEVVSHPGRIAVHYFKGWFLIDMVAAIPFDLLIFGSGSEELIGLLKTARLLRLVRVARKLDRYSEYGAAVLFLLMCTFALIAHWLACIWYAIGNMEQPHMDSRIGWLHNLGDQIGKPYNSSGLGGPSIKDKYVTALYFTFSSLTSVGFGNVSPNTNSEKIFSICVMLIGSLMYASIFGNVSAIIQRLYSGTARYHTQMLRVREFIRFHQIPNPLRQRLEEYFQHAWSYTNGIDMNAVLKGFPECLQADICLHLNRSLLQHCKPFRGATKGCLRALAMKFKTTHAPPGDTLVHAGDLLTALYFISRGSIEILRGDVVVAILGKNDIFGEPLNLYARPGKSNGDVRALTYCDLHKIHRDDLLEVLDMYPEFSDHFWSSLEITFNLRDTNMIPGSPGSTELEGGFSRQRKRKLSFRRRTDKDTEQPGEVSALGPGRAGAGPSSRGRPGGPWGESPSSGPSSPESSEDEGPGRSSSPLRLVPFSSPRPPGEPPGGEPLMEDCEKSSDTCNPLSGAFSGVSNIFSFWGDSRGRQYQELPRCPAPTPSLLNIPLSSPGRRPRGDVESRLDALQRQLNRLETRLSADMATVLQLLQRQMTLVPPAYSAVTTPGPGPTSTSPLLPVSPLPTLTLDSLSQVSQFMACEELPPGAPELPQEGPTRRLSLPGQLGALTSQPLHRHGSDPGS
Method: Membrane lysates were obtained from mammalian HEK-293 cells expressing the hERG potassium channel and used in binding assay experiments. […] After incubation was completed, the radioactivity bound to the hERG K+ channel was counted. The affinity of each test material for the hERG K+ channel was calculated from % inhibition of specific binding of the radioligand to the hERG K+ channel, resulting from the action of the test material.

[1] = male, ICR, mouse, in vivo, po, 2 weeks
[2] = oral, single dose of 1 g/10 mL/kg in 1% hydroxypropylmethylcellulose, 5-week old male ICR mice, observed 2 weeks

COc1cc(N)c(Cl)cc1C(=O)N[C@H]1CCN(CC2CCN(C(=O)C(C)(C)C)CC2)C[C@H]1OC (relative stereo) [Compound 29, cis-4-amino-5-chloro-N-[1-((1-pivaloylpiperidin-4-yl)methyl)-3-methoxypiperidin-4-yl]-2-methoxybenzamide]
pIC50 (human 5-HT4 receptor): 7.47
Minimum lethal dose (MLD, mg/kg) (male ICR mice; [1]): >1000 mg/kg

CCOC(=O)N1CCC(CN2CC[C@H](NC(=O)c3cc(Cl)c(N)cc3OC)[C@H](OC)C2)CC1 (relative stereo) [Compound 1, ethyl 4-[(cis-4-(4-amino-5-chloro-2-methoxybenzamido)-3-methoxypiperidin-1-yl)methyl]piperidine-1-carboxylate]
pIC50 (human 5-HT4 receptor): 6.64
Minimum lethal dose (MLD, mg/kg) (male ICR mice; [2]): >1000 mg/kg

COc1cc(N)c(Cl)cc1C(=O)N[C@H]1CCN(CCC(=O)Nc2cccc3ncccc23)C[C@H]1OC (relative stereo) [Compound 56, cis-4-amino-5-chloro-N-[1-(3-oxo-3-(quinolin-5-yl-amino)propyl)-3-methoxypiperidin-4-yl]-2-methoxybenzamide]
pIC50 (human 5-HT4 receptor): 7.96
Minimum lethal dose (MLD, mg/kg) (male ICR mice; [1]): >1000 mg/kg
hERG binding affinity (% at 10 μM) (hERG potassium channel): 23%

COc1cc(N)c(Cl)cc1C(=O)N[C@H]1CCN(CCC(=O)Nc2cc(C)cc(C)n2)C[C@H]1OC (relative stereo) [Compound 59, cis-4-amino-5-chloro-N-[1-(3-oxo-3-(4,6-dimethylpyridin-2-ylamino)propyl)-3-methoxypiperidin-4-yl]-2-methoxybenzamide]
pIC50 (human 5-HT4 receptor): 6.85
Minimum lethal dose (MLD, mg/kg) (male ICR mice; [1]): >1000 mg/kg

COc1cc(N)c(Cl)cc1C(=O)N[C@H]1CCN(CC2CCN(C(=O)NC(C)C)CC2)C[C@H]1OC (relative stereo) [Compound 63, 4-[cis-4-(4-amino-5-chloro-2-methoxybenzoylamino)-3-methoxy-piperidin-1-ylmethyl]-piperidine-1-carboxylic acid isopropylamide]
pIC50 (human 5-HT4 receptor): 7.60
Minimum lethal dose (MLD, mg/kg) (male ICR mice; [2]): >1000 mg/kg

COc1cc(N)c(Cl)cc1C(=O)N[C@H]1CCN(CC2CCN(C(=O)C(C)C)CC2)C[C@H]1OC (relative stereo) [Compound 14, cis-4-amino-5-chloro-N-[1-((1-isobutyrylpiperidin-4-yl)methyl)-3-methoxypiperidin-4-yl]-2-methoxybenzamide]
pIC50 (human 5-HT4 receptor): 6.85
Minimum lethal dose (MLD, mg/kg) (male ICR mice; [1]): >1000 mg/kg

COc1cc(N)c(Cl)cc1C(=O)N[C@@H]1CCN(CCc2noc(C)n2)C[C@@H]1OC [Compound 55, (3S,4R)-4-amino-5-chloro-N-[1-(2-(5-methyl-1,2,4-oxadiazol-3-yl)ethyl)-3-methoxypiperidin-4-yl]-2-methoxybenzamide]
hERG binding affinity (% at 10 μM) (hERG potassium channel): 31%
